Test results published in ChEMBL document CHEMBL3785024 (Br J Clin Pharmacol, 2004).

How the values were obtained:
Assay type in all cases: ADME, organism-based
[1] = Cmax in healthy human subjects at 40 mg with water administered as single dose measured upto 24 hrs by LC-MS analysis; set-up: dose 40 mg; details: in vivo, oral
[2] = Elimination half life in healthy human subjects at 40 mg with water administered as single dose measured upto 24 hrs by LC-MS analysis; details: in vivo, oral, read-out: beta t1/2 (converted)
[3] = AUC (0 to 24 hrs) in healthy human subjects at 40 mg with water administered as single dose measured upto 24 hrs by LC-MS analysis; set-up: time < 24 hr, dose 40 mg; details: in vivo, oral
Homo sapiens [4] = experiment: Cmax in healthy human subjects assessed as simvastatin acid at 40 mg with water administered as single dose measured upto 24 hrs by LC-MS analysis; set-up: dose 40 mg; details: in vivo, po
Homo sapiens [5] = experiment: Elimination half life in healthy human subjects assessed as simvastatin acid at 40 mg with water administered as single dose measured upto 24 hrs by LC-MS analysis; details: in vivo
Homo sapiens [6] = experiment: AUC (0 to 24 hrs) in healthy human subjects assessed as simvastatin acid at 40 mg with water administered as single dose measured upto 24 hrs by LC-MS analysis; set-up: dose 40 mg, time < 24 hr; details: in vivo, po
[7] = Cmax in healthy human subjects at 40 mg with 200 ml grape fruit juice drug administered as single dose on day 3 of grape fruit juice challenge measured upto 24 hrs by LC-MS analysis; set-up: dose 40 mg; details: in vivo, oral
[8] = Elimination half life in healthy human subjects at 40 mg with 200 ml grape fruit juice drug administered as single dose on day 3 of grape fruit juice challenge measured upto 24 hrs by LC-MS analysis; details: in vivo, oral, read-out: beta t1/2 (converted)
[9] = AUC (0 to 24 hrs) in healthy human subjects at 40 mg with 200 ml grape fruit juice drug administered as single dose on day 3 of grape fruit juice challenge measured upto 24 hrs by LC-MS analysis; set-up: dose 40 mg, time < 24 hr; details: in vivo, oral
Homo sapiens [10] = experiment: Cmax in healthy human subjects assessed as simvastatin acid at 40 mg with 200 ml grape fruit juice drug administered as single dose on day 3 of grape fruit juice challenge measured upto 24 hrs by LC-MS analysis; set-up: dose 40 mg; details: in vivo
Homo sapiens [11] = experiment: Elimination half life in healthy human subjects assessed as simvastatin acid at 40 mg with 200 ml grape fruit juice drug administered as single dose on day 3 of grape fruit juice challenge measured upto 24 hrs by LC-MS analysis; details: in vivo
Homo sapiens [12] = experiment: AUC (0 to 24 hrs) in healthy human subjects assessed as simvastatin acid at 40 mg with 200 ml grape fruit juice drug administered as single dose on day 3 of grape fruit juice challenge measured upto 24 hrs by LC-MS analysis; set-up: time < 24 hr, dose 40 mg; details: in vivo

Structure (SMILES): CCC(C)(C)C(=O)O[C@H]1C[C@@H](C)C=C2C=C[C@H](C)[C@H](CC[C@@H]3C[C@@H](O)CC(=O)O3)[C@H]21 [SIMVASTATIN]
- Cmax [1]: 7.3 ng/mL
- half-life [2]: 2.7 h
- AUC(0-t) at 24 h [3]: 31.6 ng·h/mL
- Cmax (Homo sapiens [4]): 2.6 ng/mL
- beta t1/2 (Homo sapiens [5]): 2.9 h
- AUC (Homo sapiens [6]): 18.5 ng·h/mL
- Cmax [7]: 28.5 ng/mL
- half-life [8]: 2 h
- AUC(0-t) at 24 h [9]: 112 ng·h/mL
- Cmax (Homo sapiens [10]): 11.1 ng/mL
- beta t1/2 (Homo sapiens [11]): 2.4 h
- AUC (Homo sapiens [12]): 62 ng·h/mL
